The text below walks through data of patent publication US10975412B2, “Method for designing compounds and compositions useful for targeting high stoichiometric complexes to treat conditions, including treatment of viruses, bacteria, and cancers having acquired drug resistance” (priority 2015, dated 2021).

Where two headings read alike, the source gives them in different places.

The target in this experiment is T1, phi29 DNA packaging motor (Bacillus phage phi29, UniProt P11014).
T1 construct: made in house
The format is biochemical, bacteriophage phi29. The settings on record: for inhibition effect in viral assembly: adding 20% of the drugged/mutant component to the wild-type component. On the procedure: (§1) Purified components were subjected to in vitro viral assembly assay as described previously. Briefly, 10 μg of purified procapsids were mixed with 100 ng of pRNA in 5 μl of reaction buffer (10 mM ATP, 6 mM 2-mercaptoethanol, and 3 mM spermidine in TMS buffer) at room temperature for 30 min. Purified DNA-gp3 and gp16 were then added and the reaction mixture was incubated at room temperature for one hour to initiate DNA packaging. Finally, the DNA filled procapsids were incubated with 10 μl of gp8.5-9 extract from E. coli containing plasmid pARgp8.5-9 and 20 μl of gp11-14 extract from E. coli to complete the infectious phage assembly.
The newly assembled infectious viruses were plated with inoculated B. subtilis bacteria Su^+44 cells onto a half LB plate covered with top agar. After 12 hour incubation at 37° C., the viral assembly efficiency (plaque-forming unit, PFU) was calculated by counting the formed plaque numbers.
as §1

T1 sequence (P11014 whole entry): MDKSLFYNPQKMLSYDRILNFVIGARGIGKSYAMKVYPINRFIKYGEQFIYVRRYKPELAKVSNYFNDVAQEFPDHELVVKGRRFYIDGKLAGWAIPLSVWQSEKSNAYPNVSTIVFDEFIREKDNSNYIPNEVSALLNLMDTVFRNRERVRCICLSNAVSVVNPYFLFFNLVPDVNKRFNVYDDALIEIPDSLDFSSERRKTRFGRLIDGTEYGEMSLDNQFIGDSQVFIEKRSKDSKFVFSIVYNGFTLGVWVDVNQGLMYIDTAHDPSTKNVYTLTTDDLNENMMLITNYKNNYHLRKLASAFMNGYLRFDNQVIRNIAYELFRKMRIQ

Regarding `Nc1ncnc2c1ncn2[C@@H]1O[C@H](COP(=O)(O)OP(=O)(O)OP(O)(O)=S)[C@@H](O)[C@H]1O` [γ-S-ATP], the “inhibition effect in viral assembly” value was “almost completely inhibited”. The “inhibition effect in viral assembly” value (listed as gamma-s-ATP) is reported as “nearly completely inhibited”. Further, the “comparison of virus assembly inhibition effect between drugged components” value (targets ATP, pRNA, ATPase gp16, DNA with stoichiometry 10000, 6, 6, 1) is “strongest inhibition effect”.
